Test results published in patent US10689702B2, “Biomarkers for diabetes” (The Chinese University of Hong Kong, priority 2012, dated 2020).

Test system: cancer in type 2 diabetic patients
Experiment: Hazard ratios of drug use for cancer, 5-year prospective cohort (Hong Kong Diabetes Registry)
Type: in vivo, Chinese type 2 diabetic patients
Details: patients who did not use the drug 2.5 yr prior to enrolment
[1] = Model 1, adjusted for propensity scores
[2] = Model 2, adjusted for risk factors, use of other medications during follow-up and propensity score

Molecule	HR(95% CI) for cancer, users versus non user [1]	HR(95% CI) for cancer, users versus non user [2]
CN(C)C(=N)N=C(N)N [Metformin]	0.38(0.25-0.56)	0.39(0.25-0.61)
O=C1CSC(=O)N1 [TZDs, Thiazolidinedione]	0.12(0.03-0.50)	0.18(0.04-0.72)
Insulin	0.48(0.31-0.73)	0.58(0.38-0.89)
